Assay results from PubChem BioAssay AID248 (DTP/NCI, 2004).
“And” between values parts separate entries of the source, which are not always exact repeats. Equal entries are not always repeated. Inconclusive results and toxic doses are left out. No stated cut-off is given here; in the data, active means T/C of 150% or more; inactive means T/C below 125%.

System: L1210 leukemia ip in BDF1 mice, survival T/C
Experiment: NCI In Vivo Anticancer Drug Screen. Data for tumor model L1210 Leukemia (intraperitoneal) in B6D2F1 (BDF1) mice
Details: endpoint: mean survival time, higher = longer survival
Procedure, shortened: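 Survival endpoint. Drug-treated group vs vehicle group, expressed as T divided by C. Tumor passaged by transplantation.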

[1] = dose: 100.0 mg/kg/injection, schedule: Q04DX003 (ip), vehicle: saline with Tween-80
[2] = dose: 200.0 mg/kg/injection, schedule: Q04DX003 (ip), vehicle: saline with Tween-80
[3] = dose: 100.0 mg/kg/injection, schedule: Q01DX001 (ip), vehicle: saline with Tween-80
[4] = dose: 200.0 mg/kg/injection, schedule: Q01DX001 (ip), vehicle: saline with Tween-80
[5] = dose: 400.0 mg/kg/injection, schedule: Q01DX001 (ip), vehicle: saline with Tween-80
[6] = dose: 100.0 mg/kg/injection, schedule: Q01DX009 (ip), vehicle: Klucel (hydroxypropylcellulose) (HPC)
[7] = dose: 100.0 mg/kg/injection, schedule: Q04DX003 (ip), vehicle: Klucel (hydroxypropylcellulose) (HPC)
[8] = dose: 200.0 mg/kg/injection, schedule: Q01DX009 (ip), vehicle: Klucel (hydroxypropylcellulose) (HPC)
[9] = dose: 200.0 mg/kg/injection, schedule: Q04DX003 (ip), vehicle: Klucel (hydroxypropylcellulose) (HPC)
[10] = dose: 400.0 mg/kg/injection, schedule: Q04DX003 (ip), vehicle: Klucel (hydroxypropylcellulose) (HPC)
[11] = dose: 100.0 mg/kg/injection, schedule: Q01DX001 (ip), vehicle: Klucel (hydroxypropylcellulose) (HPC)
[12] = dose: 100.0 mg/kg/injection, schedule: Q04DX002 (ip), vehicle: Klucel (hydroxypropylcellulose) (HPC)
[13] = dose: 200.0 mg/kg/injection, schedule: Q01DX001 (ip), vehicle: Klucel (hydroxypropylcellulose) (HPC)
[14] = dose: 200.0 mg/kg/injection, schedule: Q04DX002 (ip), vehicle: Klucel (hydroxypropylcellulose) (HPC)
[15] = dose: 400.0 mg/kg/injection, schedule: Q04DX002 (ip), vehicle: Klucel (hydroxypropylcellulose) (HPC)
[16] = dose: 200.0 mg/kg/injection, schedule: Q01DX001 (ip), vehicle: carboxymethylcellulose (CMC)
[17] = dose: 400.0 mg/kg/injection, schedule: Q01DX001 (ip), vehicle: carboxymethylcellulose (CMC)
[18] = dose: 400.0 mg/kg/injection, schedule: Q01DX009 (ip), vehicle: Klucel (hydroxypropylcellulose) (HPC)

Measured: T/C

O=S(=O)(c1ccccc1)c1nn2nnnc2c2ccccc12
inactive: dose: 50.0 mg/kg/injection, schedule: Q04DX003 (ip), vehicle: saline with Tween-80 107 % of control | [1] 104 % of control | [2] 103 % of control

CCOC(=O)C1(CCCBr)CCCCC1=O (stereo not drawn)
inactive: [3] 107 % of control | [4] 102 % of control | [5] 104 % of control

O=[N+]([O-])c1cc2c(cc1Br)nc(Cl)c1cc(Br)ccc12
inactive: [6] 89 % of control | [7] 104 % of control | [8] 91 % of control | [9] 100 % of control | [10] 96 % of control

O=[N+]([O-])c1ccccc1SNc1ccc(NSc2ccccc2[N+](=O)[O-])cc1
inactive: dose: 3.13 mg/kg/injection, schedule: Q01DX001 (ip), vehicle: saline with Tween-80 105 % of control | dose: 6.25 mg/kg/injection, schedule: Q01DX001 (ip), vehicle: saline with Tween-80 100 % of control | dose: 12.5 mg/kg/injection, schedule: Q01DX001 (ip), vehicle: saline with Tween-80 97 % of control

CCCCP(=S)(CCCC)N(CC)CC
inactive: [7] 101 % of control | [9] 104 % of control | [10] 93 % of control

CCC(=O)NC
inactive: dose: 100.0 mg/kg/injection, schedule: Q01DX001 (ip), vehicle: acetone 100 % of control | dose: 100.0 mg/kg/injection, schedule: Q01DX009 (ip), vehicle: acetone 101 % of control | dose: 200.0 mg/kg/injection, schedule: Q01DX001 (ip), vehicle: acetone 100 % of control | dose: 200.0 mg/kg/injection, schedule: Q01DX009 (ip), vehicle: acetone 97 % of control | dose: 400.0 mg/kg/injection, schedule: Q01DX001 (ip), vehicle: acetone 100 % of control | dose: 400.0 mg/kg/injection, schedule: Q01DX009 (ip), vehicle: acetone 100 % of control | dose: 555.0 mg/kg/injection, schedule: Q01DX015 (ip), vehicle: water 102 % of control | dose: 833.0 mg/kg/injection, schedule: Q01DX015 (ip), vehicle: water 115 % of control | dose: 1000.0 mg/kg/injection, schedule: Q01DX001 (ip), vehicle: water 98 % of control | dose: 1500.0 mg/kg/injection, schedule: Q01DX001 (ip), vehicle: water 104 % of control | dose: 2000.0 mg/kg/injection, schedule: Q01DX001 (ip), vehicle: water 113 % of control

CCN(CC)CCCC(C)Nc1nnc2c(=O)n(C)c(=O)n(C)c2n1 (stereo not drawn)
inactive: dose: 75.0 mg/kg/injection, schedule: Q04DX003 (ip), vehicle: saline 89 % of control | dose: 150.0 mg/kg/injection, schedule: Q04DX003 (ip), vehicle: saline 90 % of control | dose: 300.0 mg/kg/injection, schedule: Q04DX003 (ip), vehicle: saline 87 % of control

Cc1cc(C)nc(CCSS(=O)(=O)O)c1
inactive: dose: 100.0 mg/kg/injection, schedule: Q01DX001 (ip), vehicle: saline 104 % of control | dose: 200.0 mg/kg/injection, schedule: Q01DX001 (ip), vehicle: saline 102 % of control | dose: 400.0 mg/kg/injection, schedule: Q01DX001 (ip), vehicle: saline 98 % of control

C[C-]=O.C[C-]=O.[Br][Pd][Br]
inactive: [3] 97 % of control | [4] 100 % of control | [5] 107 % of control

CCOC(=O)[CH2][Sn]([Br])([Br])[CH2]C(=O)OCC
inactive: dose: 100.0 mg/kg/injection, schedule: Q04DX002 (ip), vehicle: saline with Tween-80 94 % of control | dose: 200.0 mg/kg/injection, schedule: Q04DX002 (ip), vehicle: saline with Tween-80 89 % of control

O=C(O)c1ccccc1N=CC(=O)c1c2ccccc2cc2ccccc12
inactive: dose: 12.5 mg/kg/injection, schedule: Q04DX002 (ip), vehicle: Klucel (hydroxypropylcellulose) (HPC) 105 % of control | dose: 25.0 mg/kg/injection, schedule: Q04DX002 (ip), vehicle: Klucel (hydroxypropylcellulose) (HPC) 105 % of control | dose: 50.0 mg/kg/injection, schedule: Q04DX002 (ip), vehicle: Klucel (hydroxypropylcellulose) (HPC) 102 % of control

O=C(Cc1c(F)c(F)c(F)c(F)c1F)Nc1ccc(-c2nc3ccccc3s2)cc1
inactive: [11] 87 % of control | [6] 115 % of control | [12] 104 % of control and 115 % of control | [7] 95 % of control | [13] 90 % of control | [8] 105 % of control | [14] 93 % of control and 95 % of control | [9] 97 % of control | [15] 95 % of control and 96 % of control | [10] 97 % of control

O=c1[nH]c2cc(Cl)ccc2c2ccccc12
inactive: dose: 100.0 mg/kg/injection, schedule: Q01DX001 (ip), vehicle: carboxymethylcellulose (CMC) 99 % of control | [16] 97 % of control | [17] 95 % of control

CCC#CC(=O)OCCCCC
inactive: dose: 100.0 mg/kg/injection, schedule: Q04DX002 (ip), vehicle: saline 105 % of control | dose: 200.0 mg/kg/injection, schedule: Q04DX002 (ip), vehicle: saline 102 % of control | dose: 400.0 mg/kg/injection, schedule: Q04DX002 (ip), vehicle: saline 108 % of control

O=C(Nc1ccc(Cl)cc1)Nc1ccc([N+](=O)[O-])cc1[N+](=O)[O-]
inactive: [12] 111 % of control | [14] 108 % of control | [15] 108 % of control

COC(=O)c1ccc(N=Nc2ncc(CC(NC(C)=O)C(=O)OC)[nH]2)cc1 (stereo not drawn)
inactive: [3] 93 % of control | [4] 96 % of control | [5] 100 % of control

CCN(CC)C(=O)/C=C/C(=O)N(CC)CC
inactive: dose: 100.0 mg/kg/injection, schedule: Q04DX003 (ip), vehicle: saline 103 % of control | dose: 200.0 mg/kg/injection, schedule: Q04DX003 (ip), vehicle: saline 100 % of control | dose: 400.0 mg/kg/injection, schedule: Q04DX003 (ip), vehicle: saline 100 % of control

O=CCc1ccc2c(c1)OCO2
inactive: [16] 92 % of control | [17] 108 % of control

COc1ccc(NC(=O)Nc2ccc(C)c(C)c2)cc1
inactive: [6] 92 % of control | [7] 97 % of control | [8] 91 % of control | [9] 103 % of control | [18] 91 % of control | [10] 95 % of control

Cc1ccc(-c2cn(CCCOc3ccccc3)c(=O)nc2N)cc1
inactive: dose: 50.0 mg/kg/injection, schedule: Q01DX001 (ip), vehicle: Klucel (hydroxypropylcellulose) (HPC) 89 % of control | [11] 99 % of control | [13] 87 % of control

CCCSCC(C)C
inactive: dose: 100.0 mg/kg/injection, schedule: Q01DX009 (ip), vehicle: saline with Tween-80 108 % of control | dose: 200.0 mg/kg/injection, schedule: Q01DX009 (ip), vehicle: saline with Tween-80 98 % of control

COC(=O)CC(=O)c1ccc(OCCOc2ccc(C(C)(C)CC(C)(C)C)cc2)c([N+](=O)[O-])c1
inactive: dose: 100.0 mg/kg/injection, schedule: Q01DX009 (ip), vehicle: saline sonified 91 % of control | [7] 93 % of control | dose: 200.0 mg/kg/injection, schedule: Q01DX009 (ip), vehicle: saline sonified 96 % of control | [9] 96 % of control | dose: 400.0 mg/kg/injection, schedule: Q01DX009 (ip), vehicle: saline sonified 95 % of control | [10] 93 % of control

O=C(O)C(O)C(O)C(O)C(O)C(O)CO.[Cu+2] (stereo not drawn)
inactive: dose: 30.0 mg/kg/injection, schedule: Q01DX001 (ip), vehicle: saline 91 % of control

OC(c1ccc(Cl)cc1)c1ccc(Cl)cc1
inactive: dose: 75.0 mg/kg/injection, schedule: Q01DX001 (ip), vehicle: acetone 97 % of control | dose: 150.0 mg/kg/injection, schedule: Q01DX001 (ip), vehicle: acetone 97 % of control | dose: 300.0 mg/kg/injection, schedule: Q01DX001 (ip), vehicle: acetone 94 % of control

COc1cc(Cl)ccc1NC(=O)Oc1ccc(-c2ccccc2)cc1
inactive: [6] 116 % of control | [8] 94 % of control | [18] 92 % of control

CCOC=NC1=C(Cl)C(=O)C(N=COCC)=C(Cl)C1=O
inactive: [7] 92 % of control | [9] 94 % of control

C/C(=C/C(=O)O)c1cc2ccccc2n1C
inactive: [1] 100 % of control | [2] 92 % of control | dose: 400.0 mg/kg/injection, schedule: Q04DX003 (ip), vehicle: saline with Tween-80 96 % of control
